Measurements as given in patent US20110065694A1 (priority 2009, published 2011).

What was measured:
[1] = biological target: human histamine H3 receptor (Homo sapiens, UniProt Q9Y5N1); test: H3 GTPγS assay (SPA method), histamine H3 in vitro assay; format: biochemical; settings: membranes of cells expressing human H3; GTPγ[35S] SPA; antagonist testing with reference agonist at EC80 (30 nM); in one embodiment HCl salts tested; read-out: Potency (functional potency as indicated by IC50)
Method: Briefly, cells expressing the human histamine H3 receptor were homogenized in 15 mM Tris-HCl pH 7.5, 2 mM MgCl2, 0.3 mM EDTA, and 1 mM EGTA. […] Membranes were frozen in liquid nitrogen until use. On the day of the assay, membranes were thawed and diluted in assay buffer (20 mM HEPES pH 7.4, 100 mM NaCl, 10 μg/ml saponin, 1 mM MgCl2) to give 500 μg/ml and mixed (v/v) with GDP in assay buffer for a final GDP concentration of 10 μM and incubated on ice for at least […]. PVT-WGA beads (Amersham, RPNQ001) were diluted in assay buffer at 50 mg/mL and mixed with GTPγ[^35S] (Amersham, SJ1308) diluted in assay buffer to give ˜25,000 dpm/10 μL and mixed vol/vol just before the start of the reaction.
For antagonists testing, 10 μL of a reference agonist ([…]) instead of 10 μL buffer was added at a concentration corresponding to the EC80 (30 nM).
The compounds provided herein were tested in the histamine H3 in vitro assay. In one embodiment, the respective HCl salts of the compounds provided herein were prepared using standard chemical procedures and tested in the histamine H3 in vitro assay.

H3 receptor = biological target: T1, H3 receptor (Rattus norvegicus, UniProt Q9QYN8); test: Rat H3 ex vivo receptor occupancy assay; settings: dose giving 50% H3 receptor occupancy; ex vivo binding of [3H] R-α-methylhistamine in rat frontal cortical membranes
T1 construct: membranes to be tested were prepared from brain frontal cortex membranes by homogenization; from tissue; host or cells: frontal cortex of adult male Sprague-Dawley rats
Method: This assay was designed to measure occupancy of H3 receptors by compounds provided herein by measuring the competition of binding to the H3 receptor with a radiolabeled ligand known to bind to the H3 receptor. More specifically, receptor occupancy was determined by ex vivo binding studies in rat cortical membranes.
Adult male Sprague-Dawley rats were treated with vehicle or compound at four different dose levels. After an appropriate pre-treatment time (typically 30 min to 1 hr), membranes to be tested were prepared from brain frontal cortex membranes by homogenization in ice-cold assay buffer. Frontal cortical membranes (400 μL containing an equivalent of 5 mg wet weight of tissue/tube) were incubated with 50 µL of [^3H] R-α-methylhistamine (final concentration 2 nM) and either 50 μL of buffer (total binding) or 50 μL of imetit (10 μM; non-specific binding) for 30 min at 25° C. in triplicates. Membrane bound radioactivity was recovered by filtration under vacuum through Skatron 11731 filters, pre-soaked in 0.5% PEI. Filters were rapidly washed with ice-cold 50 mM Tris buffer (wash setting 9,9,0) and radioactivity was determined by liquid scintillation counting (1 mL Packard MV Gold Scintillator). The amount of radioactivity in the membranes at the different doses was used generate a dose response curve and to calculate the ED50 (the dose that results in 50% receptor occupancy).
ED50 is the amount of drug at which 50% of the H3 receptors are occupied by the drug as measured by the amount of radioactivity measured at that dose relative to that measured when no drug (or vehicle) was administered.

Sprague-Dawley rats = test: Rat EEG assay; format: in vivo; settings: for number of wake and non-REM sleep bouts / wake bout duration / wake promotion / time spent in REM sleep / time spent in non-REM sleep / time spent in wake: EEG; for normalized power in the 40-60 Hz range (EEG spectral analysis): EEG spectra; for wake promotion: first 6 hours post-dosing; for time spent in REM sleep / time spent in non-REM sleep / time spent in wake: relative to vehicle treated animals
Method: The rat EEG assay was designed to measure electrical signals from the brain as a proxy for in vivo biological activity at the H3 receptor.
Specifically, animals were housed in a temperature-controlled recording room under a 12 hour/12 hour light/dark cycle, with food and water available ad libitum. Eight male Sprague-Dawley rats were implanted with chronic recording devices for continuous recordings of electroencephalograph (EEG) via telemetry (Data Sciences Inc). A repeated measures design was employed in which each rat received eight separate dosings of the compound being tested with a minimum of 3 days between doses. […] EEG data were scored visually in 10 second epochs for wake, REM, and non-REM states. Scored data were analyzed and expressed as time spent in each state per hour. Cumulative time spent in wake, non-REM, and REM states were calculated for the 6 hour recording period. To determine whether any of the pharmacological treatments affected the consolidation of behavioral states, the duration and number of bouts for each state were calculated in hourly bins. A “bout” consisted of a minimum of two consecutive 10-second epochs of a given state and ended with any single state change epoch. The EEG spectra during wake and non-REM sleep were analyzed offline with a fast Fourier transform algorithm (NeuroScore software, Data Sciences Inc) on all epochs without a visually detectable artifact. Wake EEG spectra were analyzed in 1 Hz bins. Data were analyzed using two-way repeated-measures ANOVA.
For both compounds, there was an increase in the time spent in wake, a decrease in the time spent in non-REM sleep, and no change in the time spent in REM sleep relative to vehicle treated animals.

Sequence of human histamine H3 receptor (Q9Y5N1 whole entry): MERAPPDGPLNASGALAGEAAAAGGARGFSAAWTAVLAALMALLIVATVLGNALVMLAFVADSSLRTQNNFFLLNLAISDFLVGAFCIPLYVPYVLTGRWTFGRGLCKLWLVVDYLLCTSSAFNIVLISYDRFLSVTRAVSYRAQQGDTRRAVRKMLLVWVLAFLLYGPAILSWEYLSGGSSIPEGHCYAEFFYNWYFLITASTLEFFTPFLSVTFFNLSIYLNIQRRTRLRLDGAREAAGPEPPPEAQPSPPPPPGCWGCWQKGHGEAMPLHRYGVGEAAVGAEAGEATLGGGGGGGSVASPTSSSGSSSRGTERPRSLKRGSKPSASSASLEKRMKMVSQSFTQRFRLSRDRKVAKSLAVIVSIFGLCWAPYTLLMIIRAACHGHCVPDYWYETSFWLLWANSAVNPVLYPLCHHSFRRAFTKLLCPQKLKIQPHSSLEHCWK
T1 sequence (Q9QYN8 whole entry): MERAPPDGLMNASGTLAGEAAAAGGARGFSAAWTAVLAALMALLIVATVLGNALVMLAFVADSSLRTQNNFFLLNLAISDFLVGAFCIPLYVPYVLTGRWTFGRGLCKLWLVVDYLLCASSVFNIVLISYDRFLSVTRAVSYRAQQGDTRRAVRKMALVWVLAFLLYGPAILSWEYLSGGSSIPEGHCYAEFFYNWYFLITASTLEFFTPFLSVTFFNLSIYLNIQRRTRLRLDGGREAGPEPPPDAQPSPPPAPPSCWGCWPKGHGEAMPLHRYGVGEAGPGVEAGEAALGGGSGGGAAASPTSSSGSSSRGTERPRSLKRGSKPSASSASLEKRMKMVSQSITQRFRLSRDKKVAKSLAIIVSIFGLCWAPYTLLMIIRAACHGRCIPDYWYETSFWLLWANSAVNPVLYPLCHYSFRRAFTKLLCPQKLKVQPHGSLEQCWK

Row | SMILES | IC50 [1] | ED50 (H3 receptor) | further results
1 | c1ccc2c(c1)CCN(Cc1ccc3c(c1)nc1n3CCN3CCCC[C@@H]3C1)C2 (single isomer, unassigned) [Compound 64] | < 10 nM | ≥ 1 mg/kg | –
2 | c1cn2cc(-c3ccc4c(c3)nc3n4CCN4CCCC[C@@H]4C3)ccc2n1 (single isomer, unassigned) [Compound 48] | < 10 nM | ≤ 1 mg/kg | number of wake and non-REM sleep bouts (Sprague-Dawley rats): decrease; wake bout duration (Sprague-Dawley rats): increase; normalized power in the 40-60 Hz range (EEG spectral analysis) (Sprague-Dawley rats): increase; wake promotion (Sprague-Dawley rats): wake promoting; time spent in REM sleep (Sprague-Dawley rats): no change; time spent in non-REM sleep (Sprague-Dawley rats): decrease; time spent in wake (Sprague-Dawley rats): increase
3 | c1cc2c(cc1CN1CCOCC1)nc1n2CC2CCC(C1)N2C1CCC1 (stereo not shown) [Compound 62, 4-((13-cyclobutyl-6,7,8,9,10,11-hexahydro-7,10-epiminobenzo[4,5]imidazo[1,2-a]azocin-3-yl)methyl)morpholine] | < 100 nM | – | –
4 | N#Cc1ccc(-c2ccc3c(c2)nc2n3CC3CCC(C2)N3C2CCC2)cc1 (single isomer, unassigned) [Compound 45] | < 1000 nM | – | –
5 | c1cc2c(cc1CN1CCOCC1)nc1n2CC2CC1CN2C1CCC1 (stereo not shown) [Compound 39, 4-((3-cyclobutyl-2,3,4,5-tetrahydro-1H-2,5-methanobenzo[4,5]imidazo[1,2-d][1,7]diazepin-8-yl)methyl)morpholine] | > 1000 nM | – | –
6 | N#Cc1ccc(-c2ccc3c(c2)nc2n3CC3CCCN3CC2)cc1 (stereo not shown) [Compound 13, 4-(2,3,5,6,13,13a-hexahydro-1H-benzo[4,5]imidazo[1,2-d]pyrrolo[1,2-a][1,4]diazepin-9-yl)benzonitrile] | < 1000 nM | – | –

Continued, in another order:

Row | IC50 [1] | ED50 (H3 receptor) | SMILES | further results
7 | < 10 nM | ≤ 1 mg/kg | c1ccc2c(c1)CCN(Cc1ccc3c(c1)nc1n3CCCN(C3CCC3)CC1)C2 [Compound 85, 3-cyclobutyl-10-((3,4-dihydroisoquinolin-2(1H)-yl)methyl)-1,2,3,4,5,6-hexahydrobenzo[4,5]imidazo[1,2-a][1,5]diazocine] | –
8 | < 10 nM | ≥ 1 mg/kg | c1cc2c(cc1CN1CCOCC1)nc1n2CCCN(C2CCC2)CC1 [Compound 84, 4-((3-cyclobutyl-1,2,3,4,5,6-hexahydrobenzo[4,5]imidazo[1,2-a][1,5]diazocin-10-yl)methyl)morpholine] | –
9 | < 10 nM | ≤ 1 mg/kg | c1cn2cc(-c3ccc4c(c3)nc3n4CCCN(C4CCC4)CC3)ccc2n1 [Compound 59, 3-cyclobutyl-10-(imidazo[1,2-a]pyridin-6-yl)-1,2,3,4,5,6-hexahydrobenzo[4,5]imidazo[1,2-a][1,5]diazocine] | number of wake and non-REM sleep bouts (Sprague-Dawley rats): decrease; wake bout duration (Sprague-Dawley rats): increase; normalized power in the 40-60 Hz range (EEG spectral analysis) (Sprague-Dawley rats): increase; wake promotion (Sprague-Dawley rats): wake promoting; time spent in REM sleep (Sprague-Dawley rats): no change; time spent in non-REM sleep (Sprague-Dawley rats): decrease; time spent in wake (Sprague-Dawley rats): increase
